Literature values in patent US20210023029A1, “EDASALONEXENT DOSING REGIMEN FOR TREATING MUSCULAR DYSTROPHY” (Catabasis Pharmaceuticals, Inc., priority 2017, published 2021).

Test system: mdx mice
Details: long-term studies on mdx mice; cited from earlier work

## CC/C=C\C/C=C\C/C=C\C/C=C\C/C=C\CCCC(=O)NCCNC(=O)c1ccccc1O [CAT-1041]
  muscle function, skeletal muscle weight and muscle fibrosis: preserves muscle function, increases skeletal muscle weight, and reduces muscle fibrosis
